Experimental data from PubChem BioAssay (NCI).
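Tested at 5 concentrations; 48 h exposure; 96-well plates; endpoints linearly interpolated, else capped at highest concentration. GI50: concentration for 50% inhibition of growth. TGI: total growth inhibition.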

What was measured:
Experiment in all cases: growth of human tumour cells (NCI), 48 h
BT-549 breast = system: BT-549 breast
HL-60(TB) leukemia = system: HL-60(TB) leukemia
A549 NSCLC = system: A549 NSCLC
MDA-MB-435 = system: MDA-MB-435
MDA-MB-231 breast = system: MDA-MB-231 breast
SNB-19 CNS = system: SNB-19 CNS
786-0 renal = system: 786-0 renal
MOLT-4 leukemia = system: MOLT-4 leukemia
SW-620 colon = system: SW-620 colon
M14 melanoma = system: M14 melanoma
MCF7 breast = system: MCF7 breast
SNB-75 CNS = system: SNB-75 CNS
UACC-62 melanoma = system: UACC-62 melanoma
TK-10 renal = system: TK-10 renal
KM12 colon = system: KM12 colon
DU-145 prostate = system: DU-145 prostate
HOP-92 NSCLC = system: HOP-92 NSCLC
HCT-15 colon = system: HCT-15 colon
HS 578T breast = system: HS 578T breast
OVCAR-8 ovarian = system: OVCAR-8 ovarian
T-47D breast = system: T-47D breast
COLO 205 colon = system: COLO 205 colon
SF-539 CNS = system: SF-539 CNS
LOX IMVI melanoma = system: LOX IMVI melanoma
SK-MEL-5 melanoma = system: SK-MEL-5 melanoma
HCT-116 colon = system: HCT-116 colon
HOP-62 NSCLC = system: HOP-62 NSCLC
ACHN renal = system: ACHN renal
SF-268 CNS = system: SF-268 CNS

With `CC(C)(C)c1ccc(C(=O)Nc2sc3c(c2C#N)CCC(=O)C3)cc1` the GI50 (BT-549 breast) was 338 nM, the TGI (BT-549 breast) was 16800 nM and the GI50 (HL-60(TB) leukemia) was 505 nM. For the same compound, the TGI (HL-60(TB) leukemia) was 1950 nM, the GI50 (A549 NSCLC) was 980 nM and the TGI (A549 NSCLC) was over 100000 nM. The GI50 (MDA-MB-435) was 873 nM, the TGI (MDA-MB-435) was 4820 nM and the GI50 (MDA-MB-231 breast) was 746 nM. It also gave a TGI (MDA-MB-231 breast) of 3000 nM, a GI50 (SNB-19 CNS) of 406 nM and a TGI (SNB-19 CNS) of over 100000 nM. It also gave a GI50 (786-0 renal) of 769 nM, a GI50 (MOLT-4 leukemia) of 324 nM and a TGI (MOLT-4 leukemia) of over 100000 nM. For the same compound, the GI50 (SW-620 colon) was 105 nM, the TGI (SW-620 colon) was 566 nM and the GI50 (M14 melanoma) was 412 nM. It also gave a TGI (M14 melanoma) of over 83600 nM, a GI50 (MCF7 breast) of 320 nM and a GI50 (SNB-75 CNS) of 612 nM. For the same compound, the TGI (SNB-75 CNS) was 2600 nM, the GI50 (UACC-62 melanoma) was 347 nM and the TGI (UACC-62 melanoma) was 2240 nM. It also gave a GI50 (TK-10 renal) of 531 nM, a TGI (TK-10 renal) of 5080 nM and a GI50 (KM12 colon) of 418 nM. For the same compound, the TGI (KM12 colon) was over 100000 nM, the GI50 (DU-145 prostate) was 5930 nM and the TGI (DU-145 prostate) was over 100000 nM. It also gave a GI50 (HOP-92 NSCLC) of 1210 nM, a TGI (HOP-92 NSCLC) of 4760 nM and a GI50 (HCT-15 colon) of 281 nM. It also gave a TGI (HCT-15 colon) of 3400 nM, a GI50 (HS 578T breast) of 339 nM and a TGI (HS 578T breast) of over 20500 nM. For the same compound, the GI50 (OVCAR-8 ovarian) was 643 nM, the TGI (OVCAR-8 ovarian) was over 100000 nM and the GI50 (T-47D breast) was 211 nM. The TGI (T-47D breast) was 905 nM, the GI50 (COLO 205 colon) was 328 nM and the TGI (COLO 205 colon) was 944 nM. For the same compound, the GI50 (SF-539 CNS) was 209 nM, the TGI (SF-539 CNS) was 936 nM and the GI50 (LOX IMVI melanoma) was 262 nM. It also gave a GI50 (SK-MEL-5 melanoma) of 706 nM, a TGI (SK-MEL-5 melanoma) of 1700 nM and a GI50 (HCT-116 colon) of 122 nM. For the same compound, the GI50 (HOP-62 NSCLC) was 1240 nM, the TGI (HOP-62 NSCLC) was over 100000 nM and the GI50 (ACHN renal) was 237 nM. For the same compound, the TGI (ACHN renal) was 641 nM, the GI50 (SF-268 CNS) was 625 nM and the TGI (SF-268 CNS) was over 100000 nM.
